From ChEMBL document CHEMBL1201862, “PubChem BioAssay data set” (2004)
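Values below derive from 48-hour exposures of cells grown in 96-well plates, with endpoints linearly interpolated between the two concentrations bracketing the appropriate inhibition level. GI50 = concentration required for 50% inhibition of growth.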 Activity calls are given as the source filed them. Rule as the data show it: active = GI50 up to about 1.1 µM and inactive = higher.

Assays:
Experiment in all cases: NCI-60 cell line screen, 48 h
OVCAR-4 = test system: OVCAR-4
DU-145 = test system: DU-145
MDA-MB-231 = test system: MDA-MB-231
HOP-62 = test system: HOP-62
Hs-578T = test system: Hs-578T
K562 = test system: K562
NCI-H226 = test system: NCI-H226
RPMI-8226 = test system: RPMI-8226
EKVX = test system: EKVX
OVCAR-3 = test system: OVCAR-3
SK-MEL-28 = test system: SK-MEL-28
SF-295 = test system: SF-295
MDA-N = test system: MDA-N
HT-29 = test system: HT-29
IGROV-1 = test system: IGROV-1
SK-MEL-5 = test system: SK-MEL-5
CCRF-CEM = test system: CCRF-CEM
MDA-MB-435 = test system: MDA-MB-435
HL-60 = test system: HL-60

Measured: GI50

COc1cc2c(cc1OC(=O)c1cc3ccccc3[nH]1)N=C[C@@H]1CCCN1C2=O
active: OVCAR-4 0.409 µM | DU-145 0.425 µM | MDA-MB-231 0.418 µM | HOP-62 0.363 µM | K562 0.306 µM | NCI-H226 0.809 µM | RPMI-8226 0.334 µM | EKVX 0.841 µM | OVCAR-3 0.296 µM | SK-MEL-28 0.531 µM | SF-295 1.03 µM | MDA-N 0.194 µM | HT-29 0.185 µM | IGROV-1 0.274 µM | SK-MEL-5 0.175 µM | CCRF-CEM 0.255 µM | MDA-MB-435 0.316 µM
inactive: Hs-578T 1.3 µM

CC(C)C(C/C=C1/CC(CO)(COC(=O)C(C)(C)C)OC1=O)C(C)C (centres undefined)
inactive: OVCAR-4 16.6 µM | DU-145 11.1 µM | MDA-MB-231 3.25 µM | NCI-H226 7.57 µM | EKVX 8.17 µM | OVCAR-3 15.6 µM | SK-MEL-28 15.9 µM | SF-295 2.61 µM | MDA-N 4.3 µM | HT-29 16.7 µM | IGROV-1 16.2 µM | SK-MEL-5 4.52 µM | CCRF-CEM 12.1 µM | MDA-MB-435 8.59 µM
active: HOP-62 1.03 µM | HL-60 0.105 µM | Hs-578T 0.735 µM | K562 0.171 µM

O=C1NC(N2CCCCC2)=N/C1=C\c1ccccc1
inactive: OVCAR-4 > 100 µM | DU-145 > 100 µM | MDA-MB-231 > 100 µM | HOP-62 > 100 µM | HL-60 > 100 µM | Hs-578T > 100 µM | NCI-H226 > 100 µM | RPMI-8226 > 100 µM | EKVX > 100 µM | OVCAR-3 > 100 µM | SK-MEL-28 > 100 µM | SF-295 > 100 µM | MDA-N > 100 µM | HT-29 > 100 µM | IGROV-1 > 100 µM | CCRF-CEM > 100 µM | MDA-MB-435 > 100 µM

Cc1cc2c(=O)[nH]nc(N)c2c(N)n1
inactive: OVCAR-4 > 100 µM | DU-145 > 100 µM | MDA-MB-231 > 100 µM | HOP-62 > 100 µM | HL-60 > 100 µM | Hs-578T > 100 µM | K562 > 100 µM | NCI-H226 > 100 µM | RPMI-8226 > 100 µM | EKVX > 100 µM | SK-MEL-28 > 100 µM | SF-295 > 100 µM | MDA-N > 100 µM | HT-29 > 100 µM | IGROV-1 > 100 µM | SK-MEL-5 > 100 µM | CCRF-CEM > 100 µM | MDA-MB-435 > 100 µM

COc1ccc(C(=O)/C=C/c2ccncc2)cc1OC
inactive: OVCAR-4 11 µM | DU-145 17.7 µM | MDA-MB-231 12 µM | HOP-62 16.3 µM | HL-60 2.04 µM | Hs-578T 13.7 µM | K562 2.31 µM | NCI-H226 15.5 µM | EKVX 16.7 µM | OVCAR-3 6.27 µM | SK-MEL-28 17.3 µM | SF-295 16.1 µM | MDA-N 13.1 µM | HT-29 8.93 µM | IGROV-1 12.9 µM | SK-MEL-5 16.4 µM | CCRF-CEM 4.02 µM | MDA-MB-435 14.8 µM

C/C(=N/O)c1cccc(Nc2nc3ccc(Cl)cc3c3[nH]c4ccccc4c23)c1
active: DU-145 0.261 µM | OVCAR-3 0.192 µM
inactive: OVCAR-4 1.9 µM | MDA-MB-231 2.59 µM | HOP-62 2.77 µM | HL-60 3.07 µM | Hs-578T 2.65 µM | K562 2.02 µM | NCI-H226 2.69 µM | RPMI-8226 1.66 µM | SK-MEL-28 2.12 µM | SF-295 1.41 µM | MDA-N 1.71 µM | HT-29 1.23 µM | IGROV-1 1.5 µM | SK-MEL-5 1.18 µM | CCRF-CEM 1.34 µM | MDA-MB-435 1.81 µM

C/C=C1\C(=O)OC2CCN3CCC(COC(=O)C(C)(O)C(C)C1O)C23 (centres undefined)
inactive: OVCAR-4 > 100 µM | DU-145 > 100 µM | MDA-MB-231 > 100 µM | HL-60 > 100 µM | Hs-578T > 100 µM | K562 > 100 µM | NCI-H226 > 100 µM | EKVX > 100 µM | SK-MEL-28 > 100 µM | SF-295 > 100 µM | MDA-N > 100 µM | HT-29 > 100 µM | IGROV-1 > 100 µM | SK-MEL-5 > 100 µM | MDA-MB-435 > 100 µM

COC(=O)C1(C(=O)OC)C/C(C)=C(/C)SCCCS1
inactive: OVCAR-4 > 100 µM | DU-145 > 100 µM | MDA-MB-231 > 100 µM | HOP-62 > 100 µM | Hs-578T > 100 µM | K562 43.1 µM | NCI-H226 79.1 µM | EKVX > 100 µM | OVCAR-3 92.7 µM | SK-MEL-28 > 100 µM | SF-295 > 100 µM | MDA-N > 100 µM | HT-29 > 100 µM | IGROV-1 > 100 µM | SK-MEL-5 > 100 µM | CCRF-CEM > 100 µM | MDA-MB-435 > 100 µM
